The text below walks through data of PubChem BioAssay AID192 (DTP/NCI, 2004).

Molecules are shown by their SMILES. Where “and” joins values, the source holds several entries; their conditions need not be identical. Identical values can stand only once. Toxic doses and inconclusive results are not listed. Bridge positions count the residues as written; N and C are the ends. Square brackets hold non-standard residues; d marks the D form. Peptide text beside a SMILES is read from it. NMeV = CN[CH](C(=O)O)C(C)C; Sar = CNCC(=O)O

This experiment deals with BDF1 mice, B16 melanoma ip, median survival T/C. The experiment is described as follows: NCI In Vivo Anticancer Drug Screen. Data for tumor model B16 Melanoma (intraperitoneal) in B6D2F1 (BDF1) mice. To be noted: endpoint: median survival time, higher = longer survival. The method in brief: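 Survival or tumor size is measured after treatment of tumor-bearing mice and normalised to the vehicle-treated control group.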

Setting [1] is: dose: 100.0 mg/kg/injection, schedule: Q01DX009 (ip), vehicle: Klucel (hydroxypropylcellulose) (HPC).
The mark [2] stands for this setting: dose: 100.0 mg/kg/injection, schedule: Q01DX009 (ip), vehicle: saline with Tween-80.
The mark [3] stands for this setting: dose: 200.0 mg/kg/injection, schedule: Q01DX009 (ip), vehicle: Klucel (hydroxypropylcellulose) (HPC).
Where [4] appears, read: dose: 200.0 mg/kg/injection, schedule: Q01DX009 (ip), vehicle: saline with Tween-80.
[5] abbreviates: dose: 400.0 mg/kg/injection, schedule: Q01DX009 (ip), vehicle: saline with Tween-80.
Where [6] appears, read: dose: 25.0 mg/kg/injection, schedule: Q01DX009 (ip), vehicle: Klucel (hydroxypropylcellulose) (HPC).
Setting [7] is: dose: 50.0 mg/kg/injection, schedule: Q01DX009 (ip), vehicle: saline with Tween-80.
The mark [8] stands for this setting: dose: 25.0 mg/kg/injection, schedule: Q01DX009 (ip), vehicle: saline with Tween-80.

Regarding `CCCCNc1ccc(Nc2ccccc2)cc1`, the T/C is, setting by setting: (dose: 25.0 mg/kg/injection, schedule: Q01DX009 (ip), vehicle: saline + alcohol) 103 % of control; (dose: 50.0 mg/kg/injection, schedule: Q01DX009 (ip), vehicle: saline + alcohol) 104 % of control.
Turning to `CC[CH2][Sn]([Cl])([Cl])[CH2]CC`, the T/C was 93 % of control and 100 % of control (dose: 0.5 mg/kg/injection, schedule: Q01DX009 (ip), vehicle: saline); 89 % of control and 100 % of control (dose: 1.0 mg/kg/injection, schedule: Q01DX009 (ip), vehicle: saline); 93 % of control (dose: 2.0 mg/kg/injection, schedule: Q01DX009 (ip), vehicle: saline).
Regarding `C=C1COC(O)(C2OCOC(C3CC(=O)NC(=O)C3)C2O)C1C` (stereo unspecified), the T/C is 104 % of control (dose: 2.0 micrograms/kg/injection, schedule: Q01DX009 (ip), vehicle: water); 104 % of control (dose: 4.0 micrograms/kg/injection, schedule: Q01DX009 (ip), vehicle: water); 100 % of control (dose: 8.0 micrograms/kg/injection, schedule: Q01DX009 (ip), vehicle: water); 108 % of control (dose: 16.0 micrograms/kg/injection, schedule: Q01DX009 (ip), vehicle: water); 103 % of control (dose: 32.0 micrograms/kg/injection, schedule: Q01DX009 (ip), vehicle: water).
`Nc1nc(N)nc(N)n1`: the T/C under setting [1] was 100 % of control; the T/C under setting [2] is 102 % of control; the T/C under setting [3] was 100 % of control; the T/C under setting [4] is 102 % of control; the T/C (dose: 400.0 mg/kg/injection, schedule: Q01DX009 (ip), vehicle: Klucel (hydroxypropylcellulose) (HPC)) was 105 % of control; the T/C under setting [5] was 87 % of control. The T/C (dose: 800.0 mg/kg/injection, schedule: Q01DX009 (ip), vehicle: saline with Tween-80) is 90 % of control.
As to `Cc1cnc2c(=N)n(C(=O)C(F)(F)F)n(C)c2n1`, the T/C is 90 % of control under setting [1] and 94 % of control under setting [3].
In the case of `CCC1CC2CC(c3cc4c(cc3OC)N(C)C3C(O)(C(=O)OC)C(OC(C)=O)C5(CC)C=CCN6CCC43C65)c3[nH]c4ccccc4c3CCN(C1)C2` (stereo unspecified), the T/C by setting is: (dose: 0.25 mg/kg/injection, schedule: Q01DX009 (ip), vehicle: Klucel (hydroxypropylcellulose) (HPC)) 108 % of control; (dose: 0.5 mg/kg/injection, schedule: Q01DX009 (ip), vehicle: Klucel (hydroxypropylcellulose) (HPC)) 94 % of control; (dose: 1.0 mg/kg/injection, schedule: Q01DX009 (ip), vehicle: Klucel (hydroxypropylcellulose) (HPC)) 104 % of control; (dose: 2.0 mg/kg/injection, schedule: Q01DX009 (ip), vehicle: Klucel (hydroxypropylcellulose) (HPC)) 111 % of control; (dose: 4.0 mg/kg/injection, schedule: Q01DX009 (ip), vehicle: Klucel (hydroxypropylcellulose) (HPC)) 108 % of control; (dose: 8.0 mg/kg/injection, schedule: Q01DX009 (ip), vehicle: Klucel (hydroxypropylcellulose) (HPC)) 104 % of control.
Turning to `CCC(CC)CC1CN2CCc3cc(OC)c(OC)cc3C2CC1(O)CC` (stereo unspecified), the T/C is, setting by setting: (dose: 3.12 mg/kg/injection, schedule: Q01DX009 (ip), vehicle: Klucel (hydroxypropylcellulose) (HPC)) 102 % of control; (dose: 6.25 mg/kg/injection, schedule: Q01DX009 (ip), vehicle: Klucel (hydroxypropylcellulose) (HPC)) 102 % of control; (dose: 12.5 mg/kg/injection, schedule: Q01DX009 (ip), vehicle: Klucel (hydroxypropylcellulose) (HPC)) 102 % of control; under setting [6], 106 % of control.
As to `O=C(COc1ccc(Cl)cc1)Nc1cccnc1`, the T/C reads like this: under setting [6], 90 % of control; (dose: 50.0 mg/kg/injection, schedule: Q01DX009 (ip), vehicle: Klucel (hydroxypropylcellulose) (HPC)) 94 % of control.
As for `c1ccc([I+]c2ccccc2)cc1`, the T/C reads like this: (dose: 1.0 mg/kg/injection, schedule: Q01DX009 (ip), vehicle: saline + Tween-80 + alcohol) 103 % of control; (dose: 2.0 mg/kg/injection, schedule: Q01DX009 (ip), vehicle: saline + Tween-80 + alcohol) 97 % of control; (dose: 4.0 mg/kg/injection, schedule: Q01DX009 (ip), vehicle: saline + Tween-80 + alcohol) 108 % of control; (dose: 6.0 mg/kg/injection, schedule: Q01DX009 (sc), vehicle: olive oil, sesame oil, peanut oil) 100 % of control.
Take `CC(C)C1NC(=O)C(N)C(C)OC(=O)C(C(C)C)N(C)C(=O)CN(C)C(=O)C2CCCN2C1=O` (stereo unspecified) (tested in a mixture with another compound) (H-TVP[Sar][NMeV]; ester 1-C; configuration not given here): the T/C was 156 % of control (dose: 0.22 mg/kg/injection, schedule: Q01DX009 (ip), vehicle: water); 107 % of control (dose: 25.0 micrograms/kg/injection, schedule: Q01DX009 (ip), vehicle: saline + alcohol); 122 % of control (dose: 50.0 micrograms/kg/injection, schedule: Q01DX009 (ip), vehicle: saline + alcohol); 107 % of control and 114 % of control (dose: 75.0 micrograms/kg/injection, schedule: Q04DX003 (ip), vehicle: saline + alcohol); 116 % of control (dose: 150.0 micrograms/kg/injection, schedule: Q04DX003 (ip), vehicle: saline + alcohol); 150 % of control (dose: 200.0 micrograms/kg/injection, schedule: Q01DX009 (ip), vehicle: saline + alcohol). Besides, the T/C by setting is: (dose: 300.0 micrograms/kg/injection, schedule: Q04DX003 (ip), vehicle: saline + alcohol) 100 % of control; (dose: 400.0 micrograms/kg/injection, schedule: Q01DX009 (ip), vehicle: saline + alcohol) 124 % of control; (dose: 1200.0 micrograms/kg/injection, schedule: Q04DX003 (ip), vehicle: saline + alcohol) 93 % of control and 107 % of control.
Take `CCN(C)CCN(C)CC`: the T/C is 95 % of control (dose: 100.0 mg/kg/injection, schedule: Q01DX009 (ip), vehicle: saline) and 109 % of control (dose: 200.0 mg/kg/injection, schedule: Q01DX009 (ip), vehicle: saline).
Regarding `NC(=O)CC(NC(=O)CCl)C(=O)O` (stereo unspecified), the T/C is, setting by setting: under setting [7], 98 % of control; under setting [2], 99 % of control.
`CC(C)=CCc1c2c(c(O)c3c(=O)c(-c4ccc(O)c(O)c4)coc13)C=CC(C)(C)O2`: the T/C is 100 % of control under setting [8], 94 % of control under setting [7], 94 % of control under setting [2] and 100 % of control under setting [4].
As to `O=C1C(=O)c2ccccc2-c2ccccc21.O=C1C(=O)c2ccccc2-c2ccccc21.[Hg]`, the T/C by setting is: (dose: 1.5 mg/kg/injection, schedule: Q01DX009 (ip), vehicle: saline with Tween-80) 94 % of control and 99 % of control; (dose: 3.0 mg/kg/injection, schedule: Q01DX009 (ip), vehicle: saline with Tween-80) 88 % of control and 90 % of control.
As for `O=C(COc1ccc(Cl)cc1)Nc1cccc(C(F)(F)F)c1`, the T/C reads like this: (dose: 5.0 mg/kg/injection, schedule: Q01DX009 (ip), vehicle: Klucel (hydroxypropylcellulose) (HPC)) 117 % of control; (dose: 9.4 mg/kg/injection, schedule: Q01DX009 (ip), vehicle: saline with Tween-80) 93 % of control; (dose: 10.0 mg/kg/injection, schedule: Q01DX009 (ip), vehicle: Klucel (hydroxypropylcellulose) (HPC)) 101 % of control; (dose: 37.5 mg/kg/injection, schedule: Q01DX009 (ip), vehicle: saline with Tween-80) 90 % of control and 91 % of control.
As to `Cc1cc(NCCCCCCNc2cc(C)nc3ccc(N)cc23)c2cc(N)ccc2n1`, the T/C by setting is: (dose: 2.25 mg/kg/injection, schedule: Q01DX009 (ip), vehicle: saline with Tween-80) 104 % of control; (dose: 4.5 mg/kg/injection, schedule: Q01DX009 (ip), vehicle: saline with Tween-80) 102 % of control; (dose: 9.0 mg/kg/injection, schedule: Q01DX009 (ip), vehicle: saline with Tween-80) 104 % of control; (dose: 18.0 mg/kg/injection, schedule: Q01DX009 (ip), vehicle: saline with Tween-80) 122 % of control.
With `Cc1c2ccccc2cc2cc[n+]3ccccc3c12`, the T/C reads like this: (dose: 3.75 mg/kg/injection, schedule: Q01DX009 (ip), vehicle: Klucel (hydroxypropylcellulose) (HPC)) 98 % of control; (dose: 7.5 mg/kg/injection, schedule: Q01DX009 (ip), vehicle: Klucel (hydroxypropylcellulose) (HPC)) 98 % of control; (dose: 15.0 mg/kg/injection, schedule: Q01DX009 (ip), vehicle: Klucel (hydroxypropylcellulose) (HPC)) 102 % of control.
As to `Cc1c(Cl)cccc1NC(=O)NCCC(C)C`, the T/C (dose: 12.5 mg/kg/injection, schedule: Q01DX009 (ip), vehicle: saline with Tween-80) was 103 % of control; the T/C under setting [8] was 100 % of control; the T/C under setting [7] is 96 % of control.
For `O=C(NC(CO)C(=O)OCc1ccccc1)OCc1ccccc1` (stereo unspecified), the T/C under setting [2] is 111 % of control, the T/C under setting [4] was 113 % of control and the T/C under setting [5] is 105 % of control.
